Laboratory results as given in patent US20100267796A1, “THERAPEUTIC AGENT FOR IRRITABLE BOWEL SYNDROME” (KYOWA HAKKO KOGYO CO., LTD., priority 2006, published 2010).

Tests used:
[1] = system: capsaicin-induced visceral pain; assay: Action on capsaicin-induced visceral pain model; assay type: in vivo, male ddY mice; details: doses of 3 and 30 mg/kg p.o. 30 minutes before 0.1% capsaicin into the colon; mice, n=10; 60 minutes
Method: It has been reported that a visceral pain is induced by the administration of capsaicin into the colon [Pain, Vol. 92, No. 3, pp. 335-342 (2001)].
A suspension of Compound 1-1 was prepared with an agate mortar using 0.5 w/v % MC.
Capsaicin (Sigma-Aldrich) was dissolved in a physiological saline solution containing 10% ethanol (Kanto Chemical co., Ltd.) and 10% polyoxyethylene (20) sorbitan monooleate (Tween 80, Wako Pure Chemical Industries, Ltd.), and the resultant solution was used. A test compound was orally administered in a volume of 10 mL/kg, and MC was administered to a control group in the same volume.
Male ddY mice (Japan SLC, Inc.) with a body weight of 27 g to 29 g were purchased and used in an experiment. After inspection and acclimation for 2 days or more, the mice showing favorable increases in body weight and no obvious abnormality were used. […]
After the oral administration of Compound 1-1 or 0.5 w/v % MC, each mouse was housed in a cage and left therein. […] Then, each of the mice was placed in an acrylic cage (8 cm in length×8 cm in width×15 cm in height) and recorded with a video (Sony) for 1 hour. After the recording, the following 4 behaviors and symptoms were measured as indexes of capsaicin-induced visceral pain at an interval of 5 minutes. […]

[2] = system: restraint stress-induced defecation; assay: Action on restraint stress-induced defecation; assay type: in vivo, male Wistar rats; details: 10 mg/kg p.o. 1 hour before restraint stress; measured 1 hour after stress initiation; rats, n=10; control of each sub-table 1.06-1.71 g
Method: An experiment was carried out according to the method of Kishibayashi et al. [Japanese Journal of Pharmacology, Vol. 69, No. 4, pp. 495-502 (1993)]. In the experiment, male Wistar rats aged 6 to 7 weeks (supplied from Charles River Laboratories Japan, Inc.) were used. […] The rats were lightly anesthetized with diethyl ether, and the thoracic trunk and the forelimbs were wrapped with a tape to produce mild stress. One hour after stress initiation, the wet weight of fecal pellets was measured. Each drug solution was orally administered 1 hour before restraint stress. A test compound was suspended at a concentration of 2 mg/mL in an aqueous solution of 0.5 w/v % methyl cellulose 400 cP and orally administered at a volume of 5 mL/kg (at a dose of 10 mg/kg). In a control, an aqueous solution of 0.5 w/v % methyl cellulose 400 cP was administered. Ten rats were used in each group. […] YM060, a serotonin 5-HT3 receptor antagonist [The Journal of Pharmacology and Experimental Therapeutics, Vol. 259, No. 2, pp. 815-819 (1991), Astellas Pharma. Inc., online, internet (URL: […].com/jp/companry/news/2006/pdf/060131.pdf)], which is being applied as a therapeutic agent for irritable bowel syndrome, was administered at a dose of 0.1 mg/kg.

SMILES: C[C@](O)(C(=O)Nc1cccc2c1C(=O)c1sccc1CS2(=O)=O)C(F)(F)F [Compound 1-1]
- numbers of pain-related behaviors [1]: suppressed the pain-related behaviors
- Wet weight of fecal pellets [2]: 0.27 ± 0.06 g
